ChEMBL document CHEMBL5053531, “Development of BromoTag: A "Bump-and-Hole"-PROTAC System to Induce Potent, Rapid, and Selective Degradation of Tagged Target Proteins” (J Med Chem, 2021)
Active and inactive are the calls of the source. No cut-off for these calls is given here.

Tests used:
[1] = target: T1, von Hippel-Lindau disease tumor suppressor/Bromodomain-containing protein 2 (Homo sapiens, UniProt P25440+P40337); test: Bump and hole PROTAC activity at BromoTag-Brd2/VHL-bound E3 ligase in HEK293 cells assessed as Brd2 degradation at 0.001 to 10 uM measured after 6 hrs by Western blot analysis; format: cell-based; settings: dose 0.001-10 µM
Target sequence in this assay (P25440 whole entry, looked up): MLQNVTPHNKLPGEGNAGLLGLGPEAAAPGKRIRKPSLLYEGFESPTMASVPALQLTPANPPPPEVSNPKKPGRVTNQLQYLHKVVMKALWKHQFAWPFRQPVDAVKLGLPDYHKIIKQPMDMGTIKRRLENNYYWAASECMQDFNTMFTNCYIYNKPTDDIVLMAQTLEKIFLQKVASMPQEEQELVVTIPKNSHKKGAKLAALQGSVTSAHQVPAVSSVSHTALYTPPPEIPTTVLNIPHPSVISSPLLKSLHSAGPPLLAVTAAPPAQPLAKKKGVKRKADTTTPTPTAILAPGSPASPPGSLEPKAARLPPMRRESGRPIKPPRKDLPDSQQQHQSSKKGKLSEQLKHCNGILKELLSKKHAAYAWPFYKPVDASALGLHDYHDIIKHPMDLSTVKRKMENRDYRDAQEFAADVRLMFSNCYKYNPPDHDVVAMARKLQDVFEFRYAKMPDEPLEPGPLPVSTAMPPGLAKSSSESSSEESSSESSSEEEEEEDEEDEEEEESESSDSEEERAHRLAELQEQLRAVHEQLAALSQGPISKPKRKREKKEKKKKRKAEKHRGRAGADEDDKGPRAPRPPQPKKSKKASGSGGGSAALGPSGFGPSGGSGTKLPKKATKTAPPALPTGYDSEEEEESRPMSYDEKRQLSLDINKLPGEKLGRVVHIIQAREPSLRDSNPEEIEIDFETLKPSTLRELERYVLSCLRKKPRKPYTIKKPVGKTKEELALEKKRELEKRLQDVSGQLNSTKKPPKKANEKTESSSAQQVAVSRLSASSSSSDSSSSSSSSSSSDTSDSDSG
Target sequence in this assay (P40337 whole entry, looked up): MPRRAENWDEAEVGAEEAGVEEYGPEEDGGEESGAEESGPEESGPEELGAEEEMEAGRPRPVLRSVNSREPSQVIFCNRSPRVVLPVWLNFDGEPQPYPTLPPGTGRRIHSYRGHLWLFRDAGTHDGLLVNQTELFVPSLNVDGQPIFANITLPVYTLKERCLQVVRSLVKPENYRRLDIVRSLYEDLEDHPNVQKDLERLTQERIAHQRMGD

[2] = Half life in C57BL/6 mouse at 5 mg/kg, iv measured up to 8 hrs by LC-MS analysis; format: ADME, organism-based; settings: in vivo
[3] = MRT (0 to infinity) in C57BL/6 mouse at 5 mg/kg, iv measured up to 8 hrs by LC-MS analysis; settings: in vivo
[4] = Bioavailability in C57BL/6 mouse at 5 mg/kg, sc measured up to 8 hrs by LC-MS analysis; format: ADME, organism-based; settings: in vivo
[5] = AUC (0 to infinity) in C57BL/6 mouse at 5 mg/kg, sc measured up to 8 hrs by LC-MS analysis; format: ADME, organism-based; design: dose 5 mg/kg, time < 8 hrs, route sc; settings: in vivo
[6] = Half life in C57BL/6 mouse at 5 mg/kg, sc measured up to 8 hrs by LC-MS analysis; format: ADME, organism-based; settings: in vivo
[7] = Stability in mouse plasma measured up to 60 mins; format: ADME, cell-free; settings: 1 h
[8] = target: T1, von Hippel-Lindau disease tumor suppressor/Bromodomain-containing protein 2; test: Bump and hole PROTAC activity at BromoTag-Brd2/VHL-bound E3 ligase in HEK293 cells assessed as Brd2 degradation at 1 uM measured after 6 hrs by Western blot analysis; format: cell-based
Target sequence in this assay (P25440 whole entry, looked up): as the sequence (P25440 whole entry, looked up) above
Target sequence in this assay (P40337 whole entry, looked up): as the sequence (P40337 whole entry, looked up) above

CWR22R = test: cells; settings: Homo sapiens, 22Rv1, 48 h, read-out: pEC50 (converted)
Description: Antiproliferative activity against human BET-sensitive 22Rv1 cells assessed as reduction in cell viability measured after 48 hrs by Celltiter-Glo assay

[9] = target: T1, von Hippel-Lindau disease tumor suppressor/Bromodomain-containing protein 2; test: Bump and hole PROTAC activity at BromoTag-Brd2/VHL-bound E3 ligase in HEK293 cells assessed as Brd2 degradation measured after 6 hrs by Western blot analysis; format: cell-based
Target sequence in this assay (P25440 whole entry): as the sequence (P25440 whole entry, looked up) above
Target sequence in this assay (P40337 whole entry): as the sequence (P40337 whole entry, looked up) above

With Cc1ncsc1-c1ccc([C@H](C)NC(=O)[C@@H]2C[C@@H](O)CN2C(=O)[C@@H](NC(=O)COCCCOCCOC(=O)C(C)C2N=C(c3ccc(Cl)cc3)c3c(sc(C)c3C)-n3c(C)nnc32)C(C)(C)C)cc1 (mixture of isomers) the Brd2 degradation activity [1] was “Active”.
Work on Cc1ncsc1-c1ccc(CNC(=O)[C@@H]2C[C@@H](O)CN2C(=O)[C@@H](NC(=O)COCCOCCOCCNC(=O)C[C@@H]2N=C(c3ccc(Cl)cc3)c3c(sc(C)c3C)-n3c(C)nnc32)C(C)(C)C)cc1 yielded a half-life [2] of 1.04 h, an MRT inf [3] of 0.34 h and a bioavailability [4] of 83%. It also gave an AUC(0-inf) [5] of 3.76 µM·h and a half-life [6] of 2.95 h.
In the case of CC[C@@H](C(=O)OCCOCCOCCOCC(=O)N[C@H](C(=O)N1C[C@H](O)C[C@H]1C(=O)NCc1ccc(-c2scnc2C)cc1)C(C)(C)C)[C@@H]1N=C(c2ccc(Cl)cc2)c2c(sc(C)c2C)-n2c(C)nnc21, the Stability [7] is reported as “Stable” and the bioavailability [4] is reported as 140%.
In the case of CCC(C(=O)NCCOCCCOCC(=O)N[C@H](C(=O)N1C[C@H](O)C[C@H]1C(=O)N[C@@H](C)c1ccc(-c2scnc2C)cc1)C(C)(C)C)C1N=C(c2ccc(Cl)cc2)c2c(sc(C)c2C)-n2c(C)nnc21 (mixture of isomers), the Brd2 degradation activity [1] is reported as “Active”.
With CC[C@@H](C(=O)NCCOCCOCCOCC(=O)N[C@H](C(=O)N1C[C@H](O)C[C@H]1C(=O)NCc1ccc(-c2scnc2C)cc1)C(C)(C)C)[C@@H]1N=C(c2ccc(Cl)cc2)c2ccc(OC)cc2-n2c(C)nnc21 (mixture of isomers) the Activity [8] was “inactive”.
Compound CC[C@@H](C(=O)OCCOCCOCCOCC(=O)N[C@H](C(=O)N1C[C@@H](O)C[C@H]1C(=O)NCc1ccc(-c2scnc2C)cc1)C(C)(C)C)[C@@H]1N=C(c2ccc(Cl)cc2)c2c(sc(C)c2C)-n2c(C)nnc21 has an EC50 (CWR22R) of 5.01 µM.
With Cc1ncsc1-c1ccc(CNC(=O)[C@@H]2C[C@@H](O)CN2C(=O)[C@@H](NC(=O)COCCOCCOCCNC(=O)C(C)C2N=C(c3ccc(Cl)cc3)c3c(sc(C)c3C)-n3c(C)nnc32)C(C)(C)C)cc1 (mixture of isomers) the Brd2 degradation activity [1] was “Active”.
For Cc1ncsc1-c1ccc([C@H](C)NC(=O)[C@@H]2C[C@@H](O)CN2C(=O)[C@@H](NC(=O)COCCCOCCNC(=O)C(C)C2N=C(c3ccc(Cl)cc3)c3c(sc(C)c3C)-n3c(C)nnc32)C(C)(C)C)cc1 (mixture of isomers), the Brd2 degradation activity [1] was “Active”.
For CC[C@@H](C(=O)NCCOCCOCCOCC(=O)N[C@H](C(=O)N1C[C@H](O)C[C@H]1C(=O)NCc1ccc(-c2scnc2C)cc1)C(C)(C)C)[C@@H]1N=C(c2ccc(Cl)cc2)c2cc(OC)ccc2-n2c(C)nnc21 (mixture of isomers), the Activity [8] was “inactive”.
In the case of CCC(C(=O)OCCOCCCOCC(=O)N[C@H](C(=O)N1C[C@H](O)C[C@H]1C(=O)N[C@@H](C)c1ccc(-c2scnc2C)cc1)C(C)(C)C)C1N=C(c2ccc(Cl)cc2)c2c(sc(C)c2C)-n2c(C)nnc21 (mixture of isomers), the pDC50 [9] is reported as 7.8.
With COc1ccc2c(c1)-n1c(C)nnc1[C@H]([C@@H](C)C(=O)NCCOCCOCCOCC(=O)N[C@H](C(=O)N1C[C@H](O)C[C@H]1C(=O)NCc1ccc(-c3scnc3C)cc1)C(C)(C)C)N=C2c1ccc(Cl)cc1 (mixture of isomers) the Activity [8] was “inactive”.
In the case of Cc1ncsc1-c1ccc(CNC(=O)[C@@H]2C[C@@H](O)CN2C(=O)[C@@H](NC(=O)COCCOCCOCCOC(=O)C(C)C2N=C(c3ccc(Cl)cc3)c3c(sc(C)c3C)-n3c(C)nnc32)C(C)(C)C)cc1 (mixture of isomers), the Brd2 degradation activity [1] is reported as “Active”.
